From US11072630B2, “Fluorinated and alkylated bile acids” (Metselex, Inc., priority 2015, dated 2021) come the findings set out here.

Data set [1] has as its system primary rat hepatocytes. Put plainly: DCA-induced cytotoxicity, LDH release assay. The note with it: for inhibition of DCA-induced LDH release: 100 μM bile acid, 50 μM DCA. On the technique in general: Release of lactate dehydrogenase indicates damage to the cell membrane.
Experimental: (§1) Primary rat hepatocytes were incubated with 100 μM UDCA, methylated UDCA, or no addition (control) for 12 h. Cells were then exposed to 50 μM DCA for 40 h before processing for cytotoxicity activity, including LDH (top), and adenylate kinase (middle) assays, and cell viability (bottom).
(§2) Briefly, rats were anesthetized with phenobarbital sodium (100 mg/kg body weight) injected into the peritoneal cavity. After administration of heparin (200 units/kg body weight) in the tail vein, the abdomen was opened and the portal vein exposed and cannulated. The liver was then perfused at 37° C. in situ with a calcium-free Hanks' Balanced Salt Solution (HBSS) for 10 min, and then with 0.05% collagenase type IV in calcium-present HBSS for another 10 min.
Hepatocyte suspensions were obtained by passing collagenase-digested livers through 125 μm gauze and washing cells in Complete William's E medium (William's E medium, Sigma-Aldrich Corp., St Louis, Mo., USA) supplemented with 26 mM sodium bicarbonate, 23 mM HEPES, 0.01 units/mL insulin, 2 mM L-glutamine, 10 nM dexamethasone, 100 units/mL penicillin, and 10% heat-inactivated fetal bovine serum (Invitrogen Corp., Carlsbad, Calif., USA). Viable primary rat hepatocytes were enriched by low-speed centrifugation at 200 g for 3 min. Cell viability was determined by trypan blue exclusion and was typically 80-85%. After isolation, hepatocytes were ressuspended in Complete William's E medium and plated on Primaria™ tissue culture dishes (BD Biosciences, San Jose, Calif., USA) at 5×10^4 cells/cm2.
Cells were maintained at 37° C. in a humidified atmosphere of 5% CO2 for 6 h, to allow attachment. […]
General cell death or cytotoxicity was evaluated using the lactate dehydrogenase (LDH) Cytotoxicity Detection KitPLUS (Roche Diagnostics GmbH, Mannheim, Germany), following the manufacturer's instructions. […] Finally, absorbance was measured at 490 nm, with 620 nm as reference, using a Bio-Rad model 680 microplate reader (Bio-Rad Laboratories, Hercules, Calif., USA).
Data set [2] deals with primary rat hepatocytes. Put plainly: Cytotoxicity of the bile acids alone in primary cultures of rat hepatocytes. The note with it: bile acid alone. From the text:
MTS is bioreduced by cells into a formazan product that is soluble in tissue culture medium. […] The quantity of formazan product as measured by the amount of 490 nm absorbance is directly proportional to the number of living cells in culture.

For data set [3], the system named is primary rat hepatocytes. Put plainly: Cell viability with the bile acids alone in primary cultures of rat hepatocytes. The note with it: bile acid alone. The class given is cell-based.
Experimental: as §2
Hepatocyte suspensions were obtained by passing collagenase-digested livers through 125 μm gauze and washing cells in Complete William's E medium (William's E medium, Sigma-Aldrich Corp., St Louis, Mo., USA) supplemented with 26 mM sodium bicarbonate, 23 mM HEPES, 0.01 units/mL insulin, 2 mM L-glutamine, 10 nM dexamethasone, 100 units/mL penicillin, and 10% heat-inactivated fetal bovine serum (Invitrogen Corp., Carlsbad, Calif., USA). Viable primary rat hepatocytes were enriched by low-speed centrifugation at 200 g for 3 min. Cell viability was determined by trypan blue exclusion and was typically 80-85%. […]
General cell death was also determined using a bioluminescent cytolysis assay, designed to measure the release of adenylate kinase (AK) enzyme from damaged cells (ToxiLight™ BioAssay Kit, Lonza). […] The absorbance of the formazan at 490 nm can be measured directly from 96-well assay plates without additional processing. […]
Data set [4] deals with primary rat hepatocytes. Put plainly: DCA-induced cytotoxicity, adenylate kinase release (ToxiLight Assay). The class given is cell-based. To be noted: 100 μM bile acid, cells exposed to 50 μM DCA.
Experimental: as §1
(§3) Briefly, rats were anesthetized with phenobarbital sodium (100 mg/kg body weight) injected into the peritoneal cavity. After administration of heparin (200 units/kg body weight) in the tail vein, the abdomen was opened and the portal vein exposed and cannulated. […]
(§4) Hepatocyte suspensions were obtained by passing collagenase-digested livers through 125 μm gauze and washing cells in Complete William's E medium (William's E medium, Sigma-Aldrich Corp., St Louis, Mo., USA) supplemented with 26 mM sodium bicarbonate, 23 mM HEPES, 0.01 units/mL insulin, 2 mM L-glutamine, 10 nM dexamethasone, 100 units/mL penicillin, and 10% heat-inactivated fetal bovine serum (Invitrogen Corp., Carlsbad, Calif., USA). […] Cell viability was determined by trypan blue exclusion and was typically 80-85%. […]
(§5) General cell death was also determined using a bioluminescent cytolysis assay, designed to measure the release of adenylate kinase (AK) enzyme from damaged cells (ToxiLight™ BioAssay Kit, Lonza). […]
In data set [5] the test system is primary rat hepatocytes. Put plainly: DCA-induced loss of cell viability (CellTiter-Fluor Cell Viability Assay). To be noted: pretreatment with 100 μM bile acid, 50 μM DCA. It counts as cell-based.
Experimental: as §1, §3, §4, §5
The test system of data set [6] is primary rat hepatocytes. Put plainly: TGF-β1-induced loss of cell viability (MTS activity). The class given is cell-based. The note with it: 100 μM for 12 h, then 1 nM TGF-β1 for 36 h. The method, then: FIG. 5. […] Primary rat hepatocytes were pre-incubated with 100 μM methylated UDCA, or no addition (control) for 12 h. Cells were then exposed to 1 nM TGF-β1 for 36 h before processing for MTS activity.

`C[C@H](CCC(=O)O)[C@H]1CC[C@H]2[C@@H]3[C@@H](O)C[C@@H]4C[C@H](O)CC[C@]4(C)[C@H]3CC[C@]12C` [UDCA, ursodeoxycholic acid, reference compound]: in data set [1], the “inhibition of DCA-induced LDH release” value is listed as about 70%.

On to `CO[C@H]1C[C@@H]2C[C@H](O)CC[C@]2(C)[C@H]2CC[C@]3(C)[C@@H]([C@H](C)CCC(=O)O)CC[C@H]3[C@H]12` [methylated UDCA, 3α-hydroxy,7β-methoxy-5β-cholan-24-oic acid], for which the cytotoxicity result in data set [2] (200 and 400 μM concentrations) is listed as “an increase in cytotoxicity was evident”; in data set [2] (concentrations up to 100 μM) it was “remained largely unchanged”. Also, the cell viability entry in data set [3] (from 10 to 100 μM concentrations) is listed as “tended to increase cell viability”. In data set [3] (highest bile acid concentrations (200 and 400 μM)), the viability entry is “decreased viability”. Besides, in data set [4], the “protection against DCA-induced adenylate kinase release (ToxiLight Assay)” value is “slightly better protection”. For the same compound, the “rescue of cell viability in cells exposed to DCA” value in data set [5] is recorded as “effective at rescuing cell viability”. Also, the “inhibition of TGF-β1-induced reduction in MTT metabolism / loss of cell viability” value in data set [6] is recorded as “effective at inhibiting TGF-β1-induced reduction in MTT metabolism”; in data set [6] (listed as Methylated UDCA), “prevents TGF-β1-induced loss of cell viability”. The “inhibition of DCA-induced LDH release” value in data set [1] was about 70%. The “prevention of DCA-induced cytotoxicity (FIG. 4 legend)” value in data set [1] (100 μM for 12 h, then 50 μM DCA for 40 h, LDH and adenylate kinase assays) is given as “prevents DCA-induced cytotoxicity”.
